Measurements: ChEMBL document CHEMBL3885861, “Open TG-GATES”

Species on record: Rattus norvegicus
Assay: Open TG-GATES - Regimen: Single
Format: toxicity, organism-based, Sprague-Dawley
Design: regimen Single, gender Male, age 6 weeks
Conditions: in vivo, po, 0 mg/kg, route gavage, dose level Control; for APTT / Bas / Eos / Fbg / Hb / Ht / Lym / MCH / MCHC / MCV / Mono / Neu / PT / Plat / RBC / Ret / WBC: tissue Blood; for KIDNEY_L / KIDNEY_R / KIDNEY_TOTAL: tissue Kidney; for LIVER: tissue Liver; for A/G / ALP / ALT / AST / BUN / CRE / Ca / Cl / DBIL / GLC / IP / K / LDH / Na / PL / RALB / TBIL / TC / TG / TP / gamma-GTP: tissue Plasma

`O=C(O)c1cc(/N=N/c2ccc(S(=O)(=O)Nc3ccccn3)cc2)ccc1O` [SULFASALAZINE] gave a TERMINAL_BW (3 h) of 209.5 g, an APTT (3 h) of 18.5 s and a Bas (3 h) of 0%. For the same molecule, the Eos (3 h) was 0.8%, the Fbg (3 h) was 220.4 mg/dL and the Hb (3 h) was 12.8 g/dL. The Ht (3 h) was 38.5%, the Lym (3 h) was 80.4% and the MCH (3 h) was 21.2 pg. For the same molecule, the MCHC (3 h) was 33.4%, the MCV (3 h) was 63.4 fL and the Mono (3 h) was 1.8%. It also gave a Neu (3 h) of 16.4%, a PT (3 h) of 12.8 s and a Plat (3 h) of 116.8 x10_4/uL. The RBC (3 h) was 607.8 x10_4/ul, the Ret (3 h) was 7.5% and the WBC (3 h) was 77.9 x10_2/uL. For the same molecule, the KIDNEY_L (3 h) was 0.9 g, the KIDNEY_R (3 h) was 0.9 g and the KIDNEY_TOTAL (3 h) was 1.9 g. For the same molecule, the LIVER (3 h) was 9.9 g, the A/G (3 h) was 1.5 and the ALP (3 h) was 1055 IU/L. For the same molecule, the ALT (3 h) was 36.8 IU/L, the AST (3 h) was 60.2 IU/L and the BUN (3 h) was 12 mg/dL. For the same molecule, the CRE (3 h) was 0.4 mg/dL, the Ca (3 h) was 10.6 mg/dL and the Cl (3 h) was 101.6 meq/L. For the same molecule, the DBIL (3 h) was 0.074 mg/dL, the GLC (3 h) was 196 mg/dL and the IP (3 h) was 9.4 mg/dL. The K (3 h) was 3.9 meq/L, the LDH (3 h) was 182 IU/L and the Na (3 h) was 140.2 meq/L. For the same molecule, the PL (3 h) was 140.6 mg/dL, the RALB (3 h) was 3.2 g/dL and the TBIL (3 h) was 0.1 mg/dL. The TC (3 h) was 78 mg/dL, the TG (3 h) was 73.8 mg/dL and the TP (3 h) was 5.5 g/dL. For the same molecule, the gamma-GTP (3 h) was 1.4 IU/L, the TERMINAL_BW (6 h) was 206.9 g and the APTT (6 h) was 20.7 s. The Bas (6 h) was 0%, the Eos (6 h) was 1% and the Fbg (6 h) was 224 mg/dL. For the same molecule, the Hb (6 h) was 13.2 g/dL, the Ht (6 h) was 38.3% and the Lym (6 h) was 75.8%. It also gave an MCH (6 h) of 21.8 pg, an MCHC (6 h) of 34.4% and an MCV (6 h) of 63.6 fL. It also gave a Mono (6 h) of 2.8%, a Neu (6 h) of 19.2% and a PT (6 h) of 12.9 s. For the same molecule, the Plat (6 h) was 114.7 x10_4/uL, the RBC (6 h) was 602.8 x10_4/ul and the Ret (6 h) was 7.7%. For the same molecule, the WBC (6 h) was 74.8 x10_2/uL, the KIDNEY_L (6 h) was 1 g and the KIDNEY_R (6 h) was 1 g. For the same molecule, the KIDNEY_TOTAL (6 h) was 2 g, the LIVER (6 h) was 9.4 g and the A/G (6 h) was 1.6. It also gave an ALP (6 h) of 989.2 IU/L, an ALT (6 h) of 35.8 IU/L and an AST (6 h) of 65.8 IU/L. For the same molecule, the BUN (6 h) was 10.4 mg/dL, the CRE (6 h) was 0.3 mg/dL and the Ca (6 h) was 10.6 mg/dL. It also gave a Cl (6 h) of 101.6 meq/L, a DBIL (6 h) of 0.07 mg/dL and a GLC (6 h) of 189.2 mg/dL. It also gave an IP (6 h) of 9.4 mg/dL, a K (6 h) of 4 meq/L and an LDH (6 h) of 182.6 IU/L. The Na (6 h) was 140.6 meq/L, the PL (6 h) was 141.2 mg/dL and the RALB (6 h) was 3.3 g/dL. It also gave a TBIL (6 h) of 0.1 mg/dL, a TC (6 h) of 73.2 mg/dL and a TG (6 h) of 58 mg/dL. The TP (6 h) was 5.4 g/dL, the gamma-GTP (6 h) was 1.2 IU/L and the TERMINAL_BW (9 h) was 205 g. For the same molecule, the APTT (9 h) was 18.9 s, the Bas (9 h) was 0% and the Eos (9 h) was 1%. It also gave a Fbg (9 h) of 213.2 mg/dL, a Hb (9 h) of 13.1 g/dL and a Ht (9 h) of 38.3%. The Lym (9 h) was 72.6%, the MCH (9 h) was 21.5 pg and the MCHC (9 h) was 34.1%. The MCV (9 h) was 63 fL, the Mono (9 h) was 3% and the Neu (9 h) was 22.2%. For the same molecule, the PT (9 h) was 12.8 s, the Plat (9 h) was 115.1 x10_4/uL and the RBC (9 h) was 608.8 x10_4/ul. The Ret (9 h) was 7%, the WBC (9 h) was 85.1 x10_2/uL and the KIDNEY_L (9 h) was 0.9 g. For the same molecule, the KIDNEY_R (9 h) was 0.9 g, the KIDNEY_TOTAL (9 h) was 1.8 g and the LIVER (9 h) was 8.7 g. The A/G (9 h) was 1.6, the ALP (9 h) was 765.6 IU/L and the ALT (9 h) was 31.8 IU/L. It also gave an AST (9 h) of 63.2 IU/L, a BUN (9 h) of 11.4 mg/dL and a CRE (9 h) of 0.4 mg/dL. For the same molecule, the Ca (9 h) was 10.5 mg/dL, the Cl (9 h) was 103 meq/L and the DBIL (9 h) was 0.078 mg/dL. The GLC (9 h) was 207.2 mg/dL, the IP (9 h) was 9.3 mg/dL and the K (9 h) was 3.9 meq/L. For the same molecule, the LDH (9 h) was 194.2 IU/L, the Na (9 h) was 141.2 meq/L and the PL (9 h) was 142.2 mg/dL. It also gave an RALB (9 h) of 3.4 g/dL, a TBIL (9 h) of 0.1 mg/dL and a TC (9 h) of 73.2 mg/dL. For the same molecule, the TG (9 h) was 76.4 mg/dL, the TP (9 h) was 5.5 g/dL and the gamma-GTP (9 h) was 2 IU/L. For the same molecule, the TERMINAL_BW (24 h) was 224.5 g, the APTT (24 h) was 18.9 s and the Bas (24 h) was 0%. It also gave an Eos (24 h) of 1%, a Fbg (24 h) of 220.8 mg/dL and a Hb (24 h) of 13.3 g/dL. The Ht (24 h) was 39%, the Lym (24 h) was 73.8% and the MCH (24 h) was 21.9 pg. It also gave an MCHC (24 h) of 34%, an MCV (24 h) of 64.3 fL and a Mono (24 h) of 3.6%. It also gave a Neu (24 h) of 20.4%, a PT (24 h) of 12.1 s and a Plat (24 h) of 117.1 x10_4/uL. For the same molecule, the RBC (24 h) was 607.2 x10_4/ul, the Ret (24 h) was 6.9% and the WBC (24 h) was 89.1 x10_2/uL. For the same molecule, the KIDNEY_L (24 h) was 1 g, the KIDNEY_R (24 h) was 1 g and the KIDNEY_TOTAL (24 h) was 2 g. For the same molecule, the LIVER (24 h) was 10.8 g, the A/G (24 h) was 1.5 and the ALP (24 h) was 961.8 IU/L. It also gave an ALT (24 h) of 45 IU/L, an AST (24 h) of 75.8 IU/L and a BUN (24 h) of 16.6 mg/dL. It also gave a CRE (24 h) of 0.4 mg/dL, a Ca (24 h) of 10.7 mg/dL and a Cl (24 h) of 101.6 meq/L. The DBIL (24 h) was 0.1 mg/dL, the GLC (24 h) was 193.8 mg/dL and the IP (24 h) was 8.1 mg/dL. It also gave a K (24 h) of 4.1 meq/L, an LDH (24 h) of 214.4 IU/L and a Na (24 h) of 140 meq/L. It also gave a PL (24 h) of 181.4 mg/dL, an RALB (24 h) of 3.4 g/dL and a TBIL (24 h) of 0.2 mg/dL. The TC (24 h) was 89.4 mg/dL, the TG (24 h) was 133 mg/dL and the TP (24 h) was 5.6 g/dL. It also gave a gamma-GTP (24 h) of 1.2 IU/L.
